One compound from ChEMBL document CHEMBL4406816, “Role of sulphur-heterocycles in medicinal chemistry: An update” (Eur J Med Chem, 2019) can be followed below.

≈ marks a conversion by molar mass, not a printed value.

In this experiment the test system is Mycobacterium tuberculosis. Kind of experiment: Antitubercular activity against multidrug resistant Mycobacterium tuberculosis. Format: functional.

In turn, `O=C(N/N=C/c1ccc([N+](=O)[O-])cc1)[C@H]1CSC(c2ccc(F)cc2)N1` (stereo partly specified) gave an MIC of 1.33 µM (≈ 0.498 µg/mL).

The MIC is the lowest concentration found to suppress growth.
